Legend:
[1] = system: RhoA-ROCK signaling pathway; assay: RhoA activity, ROCK activity and MLC phosphorylation in HUVECs; assay type: cell-based, human
Experimental: RhoA activities were determined using a RhoA activation assay kit (BK036, Cytoskeleton). […] Cells were lysed and the cell lysates were incubated with the rhotekin beads (50 μg/sample) for 1 h at 4° C., washed two times, and eluted with Laemmli sample buffer. Bound RhoA, which is an active form of RhoA, was analyzed by SDS-PAGE separation followed by immunoblotting with an anti-RhoA antibody (ARH03, Cyto skeleton). The amount of total RhoA was also analyzed by immunoblotting using the same antibody in order to normalize the relative activity of RhoA.
ROCK activities were determined using a ROCK activity assay kit (CSA001, Millipore). HUVECs were lysed and cell lysates were incubated for 1 hr at room temperature in 96-well plates pre-coated with recombinant MYPT1, which contain Thr696 residue that can be phosphorylated by active ROCK. The plates were washed and incubated with anti-phospho-MYPT1 (Thr696) antibody followed by incubation with HRP-conjugated secondary antibody and HRP substrate reagent. The relative amount of active ROCK was measured by a microplate reader at 450 nm (Bio-Rad).
At the indicated time, tumor tissues or cultured HUVECs were homogenized in ice-cold lysis buffer containing a protease inhibitor cocktail (Roche). […] Chemiluminescent signals were developed with HRP substrate (Millipore) and detected with a LAS-1000 mini (Fuji film).

LLC tumor vessels = assay: LLC tumor model, CD31+ tumor vessel density; assay type: in vivo, mouse; settings: for reduction of vascular density, intratumoral region / reduction of vascular density, peritumoral region: CA4P 50 mg/kg, 6 days after first treatment
Experimental: (§1) LLC and B16F10 melanoma cells were obtained from American Type Culture Collection. To generate implantation tumor models, suspensions of tumor cells (1×10^6 cells in 100 μl) were SC injected into the dorsal flank of 8 to 10 weeks old mice. Tumor volumes were measured at given time points. Tumor volume was calculated according to the formula, 0.5×A×B^2, where A is the largest diameter of a tumor and B is its perpendicular diameter. Tumor growth rate is defined as increased tumor volume relative to 2 days before. Indicated days later, the mice were anesthetized and tissues were harvested for further analyses. Tamoxifen (4 mg/kg, 4 times every 2 days, Sigma-Aldrich) was IP injected into Cdh5(PAC)-Cre^ERT2;Rhor^fl/fl mice starting from the day before tumor implantation or after the tumor volume had exceeded 300 mm^3. Cisplatin (10 mg/kg, every 7 days, Sigma-Aldrich) is IP injected for cytotoxic chemotherapy when tumor volume exceeded 100 mm^3. VEGF-trap (25 mg/kg, indicated schedule) is SC injected as an AIA therapy. CA4P (50 mg/kg, every 2 days, Sigma-Aldrich) was IP injected as a VDA therapy. As a control, equal amounts of Fc or PBS was injected in the same manner. To knock down RhoJ in vivo, control or RhoJ siRNA (2 mg/kg, indicated schedule), which were encapsulated into aptEDB-LS complexes, were IV injected into tumor-bearing mice.
For hematoxylin and eosin (H&E) staining, tumors and indicated organs were fixed overnight in 4% paraformaldehyde (PFA). After tissue processing using standard procedures, samples were embedded in paraffin and cut into 3-1 μm sections followed by H&E staining. For immunofluorescence studies, samples were fixed in 1% PFA, dehydrated in 20% sucrose solution overnight, and embedded in tissue freezing medium (Leica). Frozen blocks were cut into 50-1 μm sections. Samples were blocked with 5% goat (or donkey) serum in PBST (0.03% Trition X-100 in PBS) and then incubated for 3 hr at room temperature (RT) with the following primary antibodies: anti-GFP (rabbit polyclonal, Millipore), anti-CD31 (hamster, clone 2H8, Millipore), anti-RhoJ (mouse, clone 1E4, Novus), anti-RhoJ (mouse, clone 1D7, OriGene), FITC-conjugated anti-c′-SMA (mouse, clone 1A4, Sigma-Aldrich), anti-VE-cadherin (rat, clone 11D4.1, BD Phamingen), anti-VE-cadherin (rabbit, clone D87F2, Cell Signaling), anti-PDGFRβ (rat, eBioscience), anti-Ter119 (rat, clone TER-119, eBioscience), anti-caspase-3 (rabbit polyclonal, R&D systems), anti-LYVE-1 (rabbit polyclonal, Angiobio), anti-pan-cytokeratin (mouse, clone AE1/AE3, Abcam), anti-melanin-A (rabbit polyclonal, Abcam), anti-collagen type IV (rabbit polyclonal, Cosmo Bio), or anti-cisplatin modified DNA (rat monoclonal, Abcam). After several washes, the samples were incubated for 2 hr at RT with the following secondary antibodies: FITC-, Cy3-, or Cy5-conjugated anti-hamster IgG (Jackson ImmunoResearch), FITC- or Cy3-conjugated anti-rabbit IgG (Jackson ImmunoResearch), Cy3-conjugated anti-rat IgG (Jackson ImmunoResearch), or Cy3-conjugated anti-mouse IgG (Jackson ImmunoResearch). Goat Fab fragment anti-mouse IgG (Jackson ImmunoResearch) was used to block endogenous mouse IgG to use mouse antibody on mouse tissues. F-actin was stained with acti-stain 555 phalloidin (Cytoskeleton). Nuclei were stained with 4′,6-diamidino-2-phenylindole (DAPI, Invitrogen). Then the samples were mounted with fluorescent mounting medium (DAKO) and immunofluorescent images were acquired using a Zeiss LSM510 confocal microscope (Carl Zeiss). To detect the hypoxic areas in the tumors, Hypoxyprobe-1™ (60 mg/kg, solid pimonidazole hydrochloride, Natural Pharmacia International) was IV injected 90 min before perfusion-fixation. The tumors were then harvested, sectioned, and stained with FITC-conjugated anti-Hypoxyprobe antibody.
Density measurement of blood vessels, metastasis, hemorrhagic area, leakage area, and perfusion area were performed with ImageJ software (http://rsb.info.nih.gov/ij). […]

HUVECs [2] = assay: In vitro Matrigel tube formation assay; assay type: cell-based, human; settings: siJ-ECs (RhoJ knockdown) with CA4P 20 nM, 12 hr; compared to single treatment
Experimental: (§2) HUVECs were purchased from Lonza, cultured in endothelial growth medium (EGM-2, Lonza) and incubated in a humidified atmosphere with 5% CO2 at 37° C. The cells used were between passages 3 to 8. Transfections of siRNA duplexes into HUVECs were performed using Lipofectamine® RNAiMAX (Invitrogen) at a final concentration of 40 nM according to the manufacturer's protocol.
For matrigel tube formation assay, growth factor reduced Matrigel (BD bioscience) was thawed overnight at 4° C. The Matrigel was allowed to solidify on a 4-well culture dishes at 37° C. for 30 min. Cells were harvested and seeded at a density of 2×10^4 cells/well in growth media. Cells were then incubated at 37° C. for a further 12 hr. Tube formation was observed by taking pictures using a Leica DM IL microscope. The matrigel assays were quantified by counting the number of nodes and tubules from five different fields for each condition.

HUVECs [3] = assay: In vitro vascular permeability assay (FITC-dextran across EC monolayer); assay type: cell-based, human; settings: siJ-ECs treated with CA4P (20 nM) compared to siC-ECs treated with PBS
Experimental: as §2
For in vitro vascular permeability assay, HUVECs were cultured on collagen-coated 1.0 μm-size pore insert (Millipore). After starvation for 12 hr, the cells were treated with or without VEGF (50 ng/ml) or CA4P (20 nM) for 2 hr and was then incubated with 70 kDa FITC-Dextran for 20 min. Each solution in plate wells were read with a Victor X2 multilabel plate reader.

LLC tumor [4] = assay: LLC implantation tumor model, tumor growth; assay type: in vivo, mouse; settings: for maintenance of tumor growth response to CA4P: CA4P 50 mg/kg; for decrease of LLC tumor growth: RhoJ-WT mice
Experimental: as §1

LLC tumor [5] = assay: LLC tumor model, cytokeratin+ metastasis to inguinal LNs; assay type: in vivo, mouse; settings: CA4P 50 mg/kg
Experimental: as §1, with “tumor-bearing mice. […]” for “tumor-bearing mice.”

LLC tumor [6] = assay: Intratumoral cisplatin-modified DNA area in LLC tumor; assay type: in vivo, mouse; settings: RhoJ-KO mice compared to RhoJ-WT mice
Experimental: as §1, with “tumor-bearing mice. […]” for “tumor-bearing mice.”

LLC tumor [7] = assay: LLC tumor model, intratumoral necrosis and hemorrhage (H&E); assay type: in vivo, mouse; settings: RhoJ-KO mice treated with cisplatin compared to RhoJ-WT mice treated with cisplatin; 2 weeks after treatment
Experimental: To generate implantation tumor models, suspensions of tumor cells (1×10^6 cells in 100 μl) were SC injected into the dorsal flank of 8 to 10 weeks old mice. Tumor volumes were measured at given time points. Tumor volume was calculated according to the formula, 0.5×A×B^2, where A is the largest diameter of a tumor and B is its perpendicular diameter. Tumor growth rate is defined as increased tumor volume relative to 2 days before. Indicated days later, the mice were anesthetized and tissues were harvested for further analyses. […]
Density measurement of blood vessels, metastasis, hemorrhagic area, leakage area, and perfusion area were performed with ImageJ software (http://rsb.info.nih.gov/ij). For blood vessel density, CD31^+ area per random 0.42 mm^2 areas was measured in the peri- and intratumoral regions. To determine the amount of blood vessels that express RhoJ, GFP^+&CD31^+ area per CD31^+ area in five random 0.42 mm^2 areas were calculated. In addition, to find the percentage of CD31^+ endothelial cells within RhoJ-GFP expressing cells, the GFP^+&CD31^+ area per total GFP^+ area was also calculated. […] The area of cytokeratin^+ fluorescence was presented as % per total sectioned area of lymph node. […] The extent of hemorrhage was measured as a % of Ter-119^+ area per random 0.24 mm^2 areas. Vascular leakage was quantified as the dextran^+ area % per random 0.42 mm^2.

[8] = LLC implanted WT mice, en-siJ 2 mg/kg, VEGF-trap 25 mg/kg, 12 days after first treatment
[9] = RhoJ-KO mice, VEGF-trap 25 mg/kg, 9 days after first treatment
[10] = RhoJ-WT mice, VEGF-trap 25 mg/kg, 9 days after first treatment

## COc1ccc(/C=C\c2cc(OC)c(OC)c(OC)c2)cc1OP(=O)(O)O [CA4P, combretastatin-A4-phosphate]
[1]; RhoJ knockdown in combination with CA4P 20 nM, 30 min
  RhoA-ROCK signaling pathway (MLC phosphorylation): further activated
LLC tumor vessels; RhoJ-KO mice
  reduction of vascular density, intratumoral region: 60%
  reduction of vascular density, peritumoral region: 59%
LLC tumor vessels; RhoJ-WT mice
  reduction of vascular density, intratumoral region: 31%
  reduction of vascular density, peritumoral region: 13%
HUVECs [2]
  EC tube formation: almost complete disruption
HUVECs [3]
  increase in permeability across the EC monolayer: 2.9 fold
LLC tumor [4]; LLC, RhoJ-KO mice, CA4P 50 mg/kg IP every 2 days
  additional inhibition in tumor growth: 79%
LLC tumor [4]; LLC, WT mice, CA4P 50 mg/kg IP every 2 days
  reduction in tumor growth: 18%
LLC tumor [4]; RhoJ-KO mice
  maintenance of tumor growth response to CA4P: durable response
LLC tumor [4]; WT mice
  maintenance of tumor growth response to CA4P: not maintained
LLC tumor [5]; RhoJ-KO mice
  reduction of metastasis (inguinal LNs): 67%
LLC tumor [5]; RhoJ-WT mice
  reduction of metastasis (inguinal LNs): no reduction

## N.N.[Cl][Pt][Cl] [Cisplatin, cisplatin]
LLC tumor [6]
  increase in intratumoral accumulation of cisplatin: ~2.0 fold
LLC tumor [7]
  increased intratumoral necrosis: 80%
LLC tumor [4]; RhoJ-KO mice, cisplatin 10 mg/kg IP once every week from tumor volume >100 mm^3
  delay of LLC tumor growth: 90%
LLC tumor [4]; cisplatin 10 mg/kg IP once every week from tumor volume >100 mm^3
  decrease of LLC tumor growth: 64%

## C[C@@H](N)[C@H]1CC[C@H](C(=O)Nc2ccncc2)CC1 [Y-27632]
[1]; siJ-ECs treated with Y-27632 (up to 20 μM) for 1 hr
  RhoA activity, ROCK activity and MLC phosphorylation increased in siJ-ECs, after ROCK inhibitor: almost completely diminished

## VEGF-trap: VEGF decoy receptor; recombinant protein from stable CHO cell lines, sequesters VEGF
LLC tumor vessels; [8]
  decrease of tumor vessel density, intratumoral region: ~50%
  decrease of tumor vessel density, peritumoral region: ~45%
LLC tumor vessels; [9]
  reduction of tumor vascular density, intratumoral area: 68%
  reduction of tumor vascular density, peritumoral area: 66%
LLC tumor vessels; [10]
  decrease of tumor vascular density, intratumoral area: 49%
  decrease of tumor vascular density, peritumoral area: 43%
LLC tumor [4]; RhoJ-KO mice, VEGF-trap 25 mg/kg SC, vs Fc
  delay of LLC tumor growth: 88%
LLC tumor [4]; VEGF-trap 25 mg/kg SC, vs Fc
  decrease of LLC tumor growth: 47%

From US20140370079A1, “METHOD FOR TARGETING VASCULAR RHOJ FOR INHIBITING TUMOR ANGIOGENESIS” (Korea Advanced Institute of Science and Technology (KAIST), priority 2013, published 2014)
